# In patent US5648368A, “Fibrinogen receptor antagonists” (Merck & Co., Inc., priority 1995, dated 1997):
# System: gpIIb/IIIa complex
# Experiment: not given
# Conditions: snake venom polypeptides; literature; cited from earlier work
row,Molecule,affinity for the gpIIb/IIIa complex
1,Echistatin,high affinity

# System: cell attachment-promoting effects of fibronectin and vitronectin
# Experiment: not given
# Conditions: background statement; cited from earlier work
row,Molecule,activity of the tripeptide Arg-Gly-Asp
1,arginine-glycine-aspartic acid [Arg-Gly-Asp],low activity

# System: gel-filtered human platelets
# Experiment: ADP-stimulated/ADP-mediated platelet aggregation inhibition (Chronolog aggregometer)
# Format: cell-based
# Conditions: Homo sapiens, Platelet; table 2; "Using the methods previously described"; read-out: IC50 (μM) Inhibition of Platelet Aggregation
# Procedure: Platelet aggregation is measured at 37° C. in a Chronolog aggregometer. The reaction mixture contains gel-filtered human platelets (2×10^8 per ml), fibrinogen (100 micrograms per ml (ug/ml)), Ca^2 + (1 mM), and the compound to be tested. The aggregation is initiated by adding 10 μM ADP 1 minute after the other components are added. The reaction is then allowed to proceed for at least 2 minutes. The extent of inhibition of aggregation is expressed as the percentage of the rate of aggregation observed in the absence of inhibitor. The IC50 is the dose of a particular compound inhibiting aggregation by 50% relative to a control lacking the compound.
# In addition to the following preparative procedures, several examples of in-vitro bioactivity of compounds within the scope of the present invention are indicated. To illustrate, one test which is used to evaluate fibrinogen receptor antagonist activity is based on evaluation of inhibition of ADP-stimulated platelets. Aggregation requires that fibrinogen bind to and occupy the platelet fibrinogen receptor site. Inhibitors of fibrinogen binding inhibit aggregation. In the ADP-stimulated platelet aggregation assay used to determine inhibition associated with the compounds claimed in the instant invention, human platelets are isolated from fresh blood, collected into acid citrate/dextrose by differential centrifugation followed by gel filtration on Sepharose 2B in divalent ion-free Tyrode's buffer (pH 7.4) containing 2% bovine serum albumin. [drawing 11]
row,IC50 [µM],Molecule
1,1.6,O=C(O)CCNC(=O)c1ccnc(C(=O)NCCC2CCNCC2)c1
2,1.1,O=C(O)CCNC(=O)c1cc(C(=O)NCCC2CCNCC2)ccn1
3,0.11,CCCCS(=O)(=O)N[C@@H](CNC(=O)c1cncc(C(=O)NCCC2CCNCC2)c1)C(=O)O
4,0.45,Cc1ccc(C(=O)NCCC2CCNCC2)cc1C(=O)NCCC(=O)O
5,0.15,CCCCS(=O)(=O)N[C@@H](CNC(=O)c1cc(C(=O)NCCC2CCNCC2)ccc1C)C(=O)O
6,0.023,CCCCS(=O)(=O)N[C@@H](CNC(=O)c1cccc(C(=O)N(C)CCC2CCNCC2)c1)C(=O)O
7,0.14,CCCCS(=O)(=O)N[C@@H](CNC(=O)c1ccc(C(=O)NCC2CCNCC2)cc1)C(=O)O
8,0.02,CCCCS(=O)(=O)N[C@@H](CNC(=O)c1ccc(C(=O)NCCC2CCNCC2)cc1)C(=O)O
9,0.017,O=C(NCCC1CCNCC1)c1ccc(C(=O)NC[C@H](NS(=O)(=O)c2cccnc2)C(=O)O)cc1
10,0.052,O=C(NCCCC1CCNCC1)c1ccc(C(=O)NC[C@H](NS(=O)(=O)c2cccnc2)C(=O)O)cc1
11,0.009,O=C(NC[C@H](NS(=O)(=O)c1ccccc1)C(=O)O)c1ccc(NCCC2CCNCC2)cc1
12,0.019,O=C(NC[C@H](NS(=O)(=O)c1ccccc1)C(=O)O)c1ccc(S(=O)(=O)CCC2CCNCC2)cc1
13,0.017,O=C(NC[C@H](NS(=O)(=O)c1ccccc1)C(=O)O)c1ccc(OCCC2CNC2)cc1
14,0.01,O=C(NC[C@H](NS(=O)(=O)c1ccccc1)C(=O)O)c1ccc(OCCCC2CNC2)cc1
15,0.009,O=C(NC[C@H](NS(=O)(=O)c1cccnc1)C(=O)O)c1ccc(OCCC2CCNCC2)cc1
16,0.056,O=C(NC[C@H](NS(=O)(=O)c1ccccc1)C(=O)O)c1cccc(OCCCC2CCNCC2)c1
17,0.023,O=C(NC[C@H](NS(=O)(=O)c1ccccc1)C(=O)O)c1ccc(OCCN2CCNCC2)cc1

# Same assay, conditions: Platelet; gel-filtered human platelets 2×10^8 per ml, fibrinogen 100 ug/ml, Ca2+ 1 mM, 10 μM ADP, 37° C.; table 1; read-out: IC50 for inhibition of ADP-mediated platelet aggregation
row,IC50 [µM],Molecule
1,170,O=C(O)CCNC(=O)CCc1cccc(CC2CCNCC2)c1 [3-[3-(Piperidin-4-ylmethyl)phenyl]propionyl-β-alanine]
2,56,O=C(O)CCNC(=O)Cc1cccc(OCC2CCNCC2)c1 [3-[(4-Piperidinyl)methyloxy]-N-(2-carboxyethyl)phenyl Acetamide]
3,0.1,CCCCS(=O)(=O)N[C@@H](CNC(=O)CCc1ccc(C2CCNCC2)cc1)C(=O)O [4-(Piperidin-4-yl)phenyl-3-propionyl-[2(S)-n-butyl-sulfonylamino]-β-alanine]
4,11,O=C(O)CCNC(=O)CCc1ccc(C2CCNCC2)cc1 [4-(Piperidin-4-yl)phenyl-3-propionyl-β-alanine]
5,0.014,O=C(NC[C@H](NS(=O)(=O)c1ccccc1)C(=O)O)c1ccc(OCCC2CCNCC2)cc1 [4-[2-(Piperidin-4-yl)ethoxy]benzoyl-2(S)-phenylsulfonylamino-β-alanine]

row,Molecule,IC50 [µM]
1,"CC(CC(=O)NCCC(=O)O)c1ccc(C2=CCNCC2)cc1 (stereo not drawn) [3-[4-(1,2,5,6-Tetrahydropyridin-4-yl)phenyl]butyryl-β-alanine]",1.3
2,"CCCCS(=O)(=O)N[C@@H](CNC(=O)CCc1ccc(C2=CCNCC2)cc1)C(=O)O [4-(1,2,5,6-Tetrahydropyridin-4-yl)phenyl-3-propionyl-[2(S)-n-butylsulfonylamino]-β-alanine]",0.022
3,"O=C(O)CCNC(=O)CCc1ccc(C2=CCNCC2)cc1 [4-(1,2,5,6-Tetrahydropyridin-4-yl)phenyl-3-propionyl-β-alanine]",1.7

# Same assay, conditions: gel-filtered human platelets 2×10^8 per ml, fibrinogen 100 ug/ml, Ca2+ 1 mM, 10 μM ADP, 37° C.; table 1; read-out: IC50 for inhibition of ADP-mediated platelet aggregation
row,IC50 [µM],Molecule
1,5.2,O=C(O)CC(CCc1c[nH]c2ccccc12)NC(=O)Cc1cccc(OCC2CCNCC2)c1 (centres unmarked) [3-[(4-Piperidinyl)methyloxy]-N-[3-(2-indol-3-yl)ethyl Propionic Acid]-phenyl Acetamide]
2,0.095,CCCCS(=O)(=O)N[C@@H](Cc1ccc(NC(=O)CCCC2CCNCC2)cc1)C(=O)O [4-(4-Piperidin-4-yl)-N-3[2(S)-n-butylsulfonylaminopropionic acid]-phenylbutyramide]
